Results published in PMC6350255 (Journal of medicinal chemistry, 2018).
“Also recorded” adds a separate entry of the source.

Tests used:
[1] = system: human β-cells (dispersed human pancreatic islets); type: cell-based; settings: for human β-cell proliferation in words, dose response / overall: doses of 3–30 μM
[2] = system: NFAT2-GFP nuclear translocation in R7T1 rat beta cell line; assay: NFAT2 translocation assay; type: cell-based; settings: 10 μM, 24 h

SMILES	human β-cell proliferation in words, dose response / overall [1]	NFAT2 translocation to nucleus [2]	human β-cell proliferation, Ki-67 immunolabeling ([1]; 10 μM, 96 h)	beta cell toxicity (human β-cells)
COc1ccc2c(c1)[nH]c1c(Cl)nccc12 [1–5, 1-Chloro-7-methoxy-9H-β-carboline]	comparable to that of harmine	–	–	–
COc1ccc2c(c1)[nH]c1c(C)nc(CO)cc12 [2–8, (1-Methyl-7-methoxy-9H-pyrido[3,4-b]indol-3-yl)methanol]	excellent human β-cell proliferation; also recorded: caused proliferation in a dose-dependent manner; also recorded: superior human β-cell proliferation at a lower dose as compared to 2–2; also recorded: comparable to that of harmine	drove NFAT2 translocation	comparable to that of harmine	did not cause toxicity
COc1ccc2c(c1)[nH]c1c(CO)nccc12 [Compound 2–2, 1-Hydroxymethyl-7-methoxy-9H-β-carboline]	–	drove NFAT2 translocation	–	did not cause toxicity
COc1ccc2c(c1)[nH]c1c(C(C)=O)nccc12 [Compound 3–2, 1-Acetyl-7-methoxy-9H-β-carboline]	comparable to that of harmine	–	–	–
